The subject of one test is E. coli 25722 (wt). In words: Meropenem MIC with and without inhibitor. The format is cell-based. Particulars: Escherichia coli, read-out: Meropenem MIC in the absence of inhibitor. How it is done:
(§1) Further studies were carried out to determine if ML302F/ML302 potentiates β-lactam antibiotic activity in clinically derived strains containing IMP-1, IMP-4, VIM-4 or NDM-1, which are the most commonly observed MBLs in clinical isolates. All strains producing MBLs were confirmed as resistant to meropenem at the Clinical and Laboratory Standards Institute (U.S.A.) defined breakpoint of 8 μg/mL for Enterobacteriace (see Table 2 below). The minimum inhibitory concentration (MIC) of meropenem against wildtype and MBL producing Escherichia coli and Klebsiella pneumoniae strains was determined with and without increasing concentrations of ML302 or ML302F. Clinical and Laboratory Standards Institute. 2012. Methods for dilution antimicrobial susceptibility tests for bacteria that grow aerobically; 9th ed. Approved standard M07-A9. CLSI, Wayne, Pa.; and Clinical and Laboratory Standards Institute. 2012. Performance standards for antimicrobial susceptibility testing; 22nd informational supplement M100-S22. CLSI, Wayne, Pa.

The subject of test [1] is K. pneumoniae NCTC 5055 (wt). In words: Meropenem MIC with and without inhibitor. In kind it is cell-based. Particulars: Klebsiella pneumoniae, NCTC5055, read-out: Meropenem MIC in the absence of inhibitor. Here is the method: as §1

In patent US10351525B2, “Beta lactamase inhibitors” (Oxford University Innovation Limited, priority 2014, dated 2019) one finds MIC data, which are given here for one molecule.

Broadly, the MIC is the least concentration at which growth counts as inhibited. As for `C[C@@H](O)[C@H]1C(=O)N2C(C(=O)O)=C(S[C@@H]3CN[C@H](C(=O)N(C)C)C3)[C@H](C)[C@H]12` [Meropenem, meropenem], the MIC (in the test on E. coli 25722 (wt); in test [1]) was at most 0.25 µg/mL in each case.
